Test system: E. coli sepsis in dogs
Assay: Late Treatment Study: TAC given after 3.5 h of sepsis, hemodynamics
Format: in vivo, dog
Conditions: for Arterial pH / HR / Hct / Lactate / Pwp / SVR: mean±SE, n=5
Protocol: In all of the studies outlined, the animals were randomized into treatment and nontreatment placebo groups (see below). The E. coli model used in these studies was identical to that previously described (6). Sepsis was induced by the intravenous infusion of 10^10 colony forming units of live E. coli (designation 011:B4). The bacteria were suspended in normal saline solution and were given over 0.5 hour. A constant infusion of approximately 5×10^9 colony forming units/hour of E. coli was then maintained for the remainder of the experiment.
The animals (16-24 kg) were initially anesthetized with thiopental sodium (20 mg/kg, intravenously) and constantly infused with sufentanil citrate (1 ug/min) and midazolam (5 ug/kg/min) (33). Drug rates were adjusted as required to abolish the palpebral reflex. The animals were placed in the supine position; the trachea was intubated with an endotracheal tube; and the lungs were mechanically ventilated at a tidal volume of 20 ml/kg. The ventilator rate was initially set to maintain blood pH at approximately 7.35 and was increased as necessary to reverse the metabolic acidosis that developed over the course of the study. Approximately 100% oxygen was inspired, so that hypoxemia would not affect the results of the study.
Under sterile conditions, the right jugular vein was percutaneously cannulated with an introducer (Arrow International, Reading, Pa.). A thermister tipped catheter was advanced from the jugular vein into the pulmonary artery to measure mean pulmonary arterial pressure (Ppa), mean pulmonary capillary wedge pressure (Pwp), mean right atrial pressure (Pra), thermodilution cardiac output (CO, Columbus Instruments, OH), and to obtain mixed venous oxygen blood samples. Another introducer was placed into the left jugular vein for administration of intravenous saline solution and the treatment or placebo drug (see below). A polyethylene catheter was also percutaneously placed into the femoral artery to measure mean blood pressure (MAP), and to obtain samples of blood for blood gas analysis, blood hematocrit (Hct), lactate concentrations, and blood cultures in some cases. Lactate was measured by an automated lactate dehydrogenase based assay (34) and was performed only in ETS and LTS because of equipment difficulties in the Pretreatment Study.
All catheters were connected to transducers (Cobe Laboratories), were referenced relative to the left atrium and were connected to a chart recorder (Astro-Med, W Warwick, R.I.). Heart rate (HR) was measured from the recorder tracing. Stroke-volume (SV) was calculated as CO/HR. Systemic vascular resistance (SVR) was calculated from [(MAP-Pra)/CO]×80. At each measurement interval (see below), a full set of measurements included MAP, CO, Ppa, Pra, Pwp, Hct, HR, SV, and arterial and mixed venous blood samples.
In the analysis, stroke work (SW) was the primary index of cardiac performance and the primary hemodynamic endpoint chosen in the in vivo studies (35,18) (see Discussion). At constant preload, SW reflects both the decreases in afterload and the changes in contractile function that accompany sepsis. SW was determined at approximately the same Pwp at each measurement interval. The baseline Pwp usually averaged ≈8-10 mmHg, and normal saline solution was given as necessary to maintain Pwp constant over the experimental period. SW was calculated from SV (MAP-Pwp).
Late Treatment Study. In LTS, the objective was to see if TAC would reverse myocardial depression once it had already been produced. TAC was administered after 3.5 hours after the initiation of bacteria and was given over a 0.5 hour in 200 ml D5W. Because it was also noted in the in vitro trabecular preparation that once lysozyme was already placed into the bath, a higher concentration of TAC was required to inhibit the effect of lysozyme, the initial dose was increased to 250 mg in LTC. […]

[1] = Late Treatment Study, 2 h posttreatment (6 h post-sepsis)
[2] = Late Treatment Study, 3.5 h post sepsis, before TAC
[3] = Late Treatment Study, immediately after TAC infusion

CC(=O)N[C@H]1[C@H](O[C@H]2[C@H](O)[C@@H](NC(C)=O)C(O)O[C@@H]2CO)O[C@H](CO)[C@@H](O[C@@H]2O[C@H](CO)[C@@H](O)[C@H](O)[C@H]2NC(C)=O)[C@@H]1O (stereo partly shown) [TAC, N,N′,N″ triacetylglucosamine]
SW once myocardial depression was observed (Late Treatment Study): little effect of treatment on SW | Hemodynamics (Late Treatment Study (FIG. 11)): no effect | Arterial pH [1]: 7.20 ± .04 | HR [1]: 90 ± 9 beats/min | Hct [1]: 29 ± 6% | Lactate [1]: 1.3 ± .4 mM | Pwp [1]: 10 ± 1.6 mmHg | SVR [1]: 1280 ± 182 dynes s cm^−5 | Arterial pH [2]: 7.24 ± .05 | HR [2]: 113 ± 9 beats/min | Hct [2]: 26 ± 5% | Pwp [2]: 9.8 ± 1 mmHg | SVR [2]: 1200 ± 262 dynes s cm^−5 | Arterial pH (Late Treatment Study, baseline): 7.34 ± .015 | HR (Late Treatment Study, baseline): 60 ± 4 beats/min | Hct (Late Treatment Study, baseline): 34 ± 2% | Lactate (Late Treatment Study, baseline): .9 ± .2 mM | Pwp (Late Treatment Study, baseline): 9.4 ± 1 mmHg | SVR (Late Treatment Study, baseline): 2437 ± 343 dynes s cm^−5 | Arterial pH [3]: 7.20 ± .04 | HR [3]: 96 ± 8 beats/min | Hct [3]: 27 ± 5% | Lactate [3]: 1.3 ± .2 mM | Pwp [3]: 10.5 ± 1.4 mmHg | SVR [3]: 1268 ± 196 dynes s cm^−5

Reference: US7402575B2, “Methods of treating inflammation” (priority 2003, dated 2008)
